The source of these data is patent publication EP4635958A1, “PYRIMIDINE-CONTAINING POLYCYCLIC DERIVATIVE INHIBITOR, AND PREPARATION METHOD THEREFOR AND USE THEREOF” (Shanghai Hansoh Biomedical Co., Ltd., priority 2022, dated 2024).

The subject of data set [1] is AsPC-1. As to the kind of experiment: Inhibition of proliferation of KRAS G12D mutant tumor cell line AsPC-1 (CellTiter-Glo). The data set is classed as cell-based. To be noted: Homo sapiens, ASPC1, about 72 h. The method, then: 1. Experimental objective: The inhibition activity of the example compounds on the proliferation of 5 KRAS G12D mutant cell lines SNU-1, HPAF-II, Panc0403, AsPC-1 and GP2D was determined. 2. Experimental instruments: • 2.1 Instruments: Microplate reader (BioTek Synergy H1); Pipette (Eppendorf & Rainin). • 2.2 Reagents: HPAF-II, PANC0403, AsPC-1 and GP2D were purchased from COBIOER BIOSCIENCES CO., LTD; SNU-1 was purchased from the cell bank of Chinese Academy of Sciences, Cell Titer-Glo was purchased from Promega, with a catalog number of G7573; RPMI 1640 was purchased from Gibco, with a catalog number of 22400089; DMEM was purchased from Gibco, with a catalog number of 11995065; FBS was purchased from Gibco, with a catalog number of 10091148; PBS was purchased from Gibco, with a catalog number of 10010023; trypsin was purchased from Gibco, with a catalog number of 25200056; cell culture plates were purchased from Corning Company, with a catalog number of 3610. 3. Experimental method: When SNU-1, HPAF-II, Panc0403, AsPC-1 or GP2D cells were cultured to the appropriate confluence, and the SNU-1, HPAF-II, Panc0403, AsPC-1 or GP2D cells were collected. The cells were adjusted to the appropriate cell density using complete culture medium, the cell suspension was plated onto a 96-well plate at 90 µL per well, and the plate was placed in the incubator at 37°C and 5% CO2 for adherent culture overnight. Solutions of the compound with different concentrations were formulated using DMSO and culture medium. A vehicle control was set up. The solutions of the compound were added to the 96-well plate at 10 µL per well, and the plate was placed in the incubator at 37°C and 5% CO2 for further culture for about 72 h. Then, CellTiter-Glo solution was added, and the obtained mixture was shaken and mixed evenly, incubated in the dark for 10 min, and read with a BioTek Synergy H1 microplate reader. 4. Experimental data processing method: The luminescence signal value was used to calculate the inhibition rate. Graphpad Prism software was used to fit the concentration and inhibition rate to a nonlinear regression curve, so as to obtain the IC50 value. 5. Experimental results: Table 2: Determination of the inhibition activity of the compounds on the proliferation of KRAS G12D mutant tumor cell line GP2D
In general terms: Cellular ATP, detected with luciferase, serves as a proxy for viable cell number.

Data set [2] deals with GP2D. As to the kind of experiment: Inhibition of proliferation of KRAS G12D mutant tumor cell line GP2D (CellTiter-Glo). Particulars: Homo sapiens, GP2d, 72 h, read-out: GP2D IC50.
Experimental: Experimental method: When SNU-1, HPAF-II, Panc0403, AsPC-1 or GP2D cells were cultured to the appropriate confluence, and the SNU-1, HPAF-II, Panc0403, AsPC-1 or GP2D cells were collected. The cells were adjusted to the appropriate cell density using complete culture medium, the cell suspension was plated onto a 96-well plate at 90 µL per well, and the plate was placed in the incubator at 37°C and 5% CO2 for adherent culture overnight. Solutions of the compound with different concentrations were formulated using DMSO and culture medium. A vehicle control was set up. […] Then, CellTiter-Glo solution was added, and the obtained mixture was shaken and mixed evenly, incubated in the dark for 10 min, and read with a BioTek Synergy H1 microplate reader. […] Experimental data processing method: The luminescence signal value was used to calculate the inhibition rate. Graphpad Prism software was used to fit the concentration and inhibition rate to a nonlinear regression curve, so as to obtain the IC50 value.
A short description of data set [3]: Pharmacokinetic determination in rats (IV and PO, plasma, LCMS/MS). Particulars: male SD rats; for AUC(0-inf): read-out: AUCo-∞; for half-life: read-out: T1/2 (converted); for Cmax: read-out: Cmax; for Tmax: read-out: Tmax. The data set is classed as in vivo, SD rats. The procedure:
SD rats were used as test animals to study the pharmacokinetic behavior of the example compounds in rats (plasma) after oral administration.
The example compounds of the present invention, made in house.
3 SD rats per group, male. Shanghai Jiesijie Experimental Animal Co., Ltd., animal production license number (SCXK (Shanghai) 2013-0006 N0.311620400001794).
Formulation of a drug for oral administration: 10% Captisol in 50 mM citrate buffer pH 5.0.
(§1) Formulation of 50 mM citric acid: 4.8 g of citric acid was weighed into a 1000 ml glass bottle, ultrapure water was added to 300 ml, and the mixture was magnetically stirred until completely dissolved, additional ultrapure water was then added to 500 ml to formulate 50 mM citric acid.
(§2) Formulation of a solution containing 50 mM citric acid (10% Captisol, PH = 5): 50 g of Captisol powder was weighed and added to a 1000 ml glass bottle, 300 ml of 50 mM citric acid was added, and the mixture was magnetically stirred until completely dissolved, then additional citric acid was added to 500 ml, and the PH was adjusted to 5 using 10 M NaOH.
The example compounds were weighed and dissolved in the solution and the mixture was shaken well and subjected to ultrasound treatment for 15 min to obtain a colorless clear solution with a concentration of 3 mg/mL.
(§3) Formulation of a drug for intravenous administration: 5%DMSO+10%Solutol HS15+85%PBS.
(§4) The example compounds were weighed, and 5% DMSO was added according to the total administration volume; the mixture was vortexed and sonicated for 2 min to ensure complete dissolution; then, 10% Solutol HS15 was added, and the mixture was vortexed and sonicated for 2 min to achieve complete dissolution; finally, 85% PBS was added, and the mixture was vortexed and sonicated for 5 min; the obtained mixture was filtered through a 0.22 um membrane to obtain a colorless, transparent, and clear solution with a concentration of 0.2 mg/mL.
3 SD rats per group, male; After overnight fasting, the animals were administered orally (PO) at a dose of 30 mg/kg with an administration volume of 10 mL/kg.
3 SD rats per group, male; After overnight fasting, the animals were administered intravenously (IV) at a dose of 1 mg/kg with an administration volume of 5 mL/kg.
0.2 mL of blood was collected from the jugular vein before administration and at 0.25 h, 0.5 h, 1.0 h, 2.0 h, 4.0 h, 6.0 h, 8.0 h, and 24.0 h after administration and placed in an EDTA-2K test tube, and the test tube was centrifuged at 6000 rpm for 6 min at 4°C to separate the plasma, which was stored at -20°C. the animals were fed 4 h after administration.
The final determination results obtained by applying the LCMS/MS method are shown in the table below: Table 8: Pharmacokinetic parameters of the compounds administered intravenously in rats

Data set [4] in a line: Pharmacokinetic determination in mice (IV and PO, plasma, LCMS/MS). The data set is classed as in vivo, Balb/c mice. To be noted: for half-life: read-out: T1/2 (converted).
From the text: • 1. Study objective: Balb/c mice were used as test animals to study the pharmacokinetic behavior of the compounds in mice (plasma) after oral administration. • 2. Test scheme • 2.1 Test drugs: The example compounds of the present invention, made in house; • 2.2 Test animals: Balb/c mice, male, purchased from Shanghai Jiesijie Experimental Animal Co., Ltd., animal production license number (SCXK (Shanghai) 2013-0006 N0.311620400001794). • 2.3 Drug formulation: Formulation of a drug for oral administration: 10% Captisol in 50 mM citrate buffer pH 5.0.
as §1, §2
The example compounds were weighed and added to a 4 mL glass bottle separately, 2.4 mL of the solution was added and the mixture was subjected to ultrasound treatment for 10 min to obtain a colorless clear solution with a concentration of 3 mg/mL.
as §3, §4
3 Balb/c mice, male; After overnight fasting, the animals were administered orally (PO) at a dose of 30 mg/kg with an administration volume of 10 mL/kg.
3 Balb/C mice, male; After overnight fasting, the animals were administered intravenously (IV) at a dose of 1 mg/kg with an administration volume of 5 mL/kg.
0.04 mL of blood was collected from the orbit before administration and at 0.25 h, 0.5 h, 1 h, 2 h, 4 h, 6 h, 8 h, and 24 h after administration and placed in an EDTA-2K test tube, and the test tube was centrifuged at 6000 rpm for 6 min at 4°C to separate the plasma, which was stored at -20°C; the animals were fed 4 h after administration.
The final determination results obtained by applying the LCMS/MS method are shown in the table below: Table 6: Pharmacokinetic parameters of the compounds administered intravenously in mice

A short description of data set [5]: Plasma stability test, rat plasma. To be noted: Rat plasma, 37°C.
From the text: The purpose of this experiment was to detect the stability of the example compounds in plasma of mouse, rat, dog and human.
Liquid chromatography-mass spectrometer, centrifuge, vortexer, pipette, continuous dispenser, 96-well plate, 50% methanol aqueous solution, acetonitrile solution containing internal standard, blank matrix (plasma of rat, dog, or human), Propantheline (propantheline bromide), Mevinolin (lovastatin), and test compound.
After whole blood was collected from animals or humans, it was placed in a test tube containing an anticoagulant and centrifuged at 3500 rpm for 10 min to collect the upper pale yellow plasma.
The compound was weighed and the stock solution was formulated with DMSO and the working solution was formulated with 100 mM phosphate buffer.
2.36 mg of propantheline bromide was weighed and diluted with 1 mL of DMSO into a 10 mM stock solution; 10 µL of 10 mM stock solution was pipetted into 1 mL of 100 mM phosphate buffer to achieve a final concentration of 100 µM.
4.05 mg of lovastatin was weighed and diluted with 1 mL of DMSO into a 10 mM stock solution; 10 µL of 10 mM stock solution was pipetted into 1 mL of 100 mM phosphate buffer to achieve a final concentration of 100 µM.
• 1) In a 96-well plate, 285 µL of plasma and 15 µL of 10 µM compound (test compound) were added in sequence and incubated at 37°C. • 2) 40 µL was taken at 0, 15, 30, 60, 90, and 120 min (the sampling point can be fine-tuned) and 160 µL of acetonitrile stop solution containing internal standard was add. • 3) After centrifugation (3500 rpm, 10 min), 50 µL of supernatant was taken, and 50 µL of DDH2O added for dilution and then the obtained mixture was injected into LC-MS/MS.
• Instruments: Shimadzu LC-20 AD • Chromatographic column: Phenomenex Gemiu ® C18 (50*4.6 mm, 5 µm particle size); • mobile phase: A: Acetonitrile, B: 0.1% formic acid solution 0-8 min: 5% A→95% A, 2.0-2.1 min: 90%A→5% A; Flow rate: 0.8 mL/min; Run time: 5.0 min; Injection volume: 5 µL.
• Instrument: API4000 liquid chromatography-mass spectrometer, AB Company, USA; • the ion source was electrospray ionization source (ESI); • drying gas (N2) temperature was 500°C; • electrospray voltage was 5500V; • the detection method was positive ion detection; • the scanning method was selected reaction monitoring (MRM); • the scanning time was 0.1s.
Setting [6] is: rat, in vivo, IV, 1 mg/kg, overnight fasting, plasma.
Where [7] appears, read: rat, in vivo, PO, 30 mg/kg, overnight fasting, plasma.

SMILES strings stand for the structures.

For orientation: IC50 means the concentration needed to halve the response being measured. Consider `C#Cc1c(F)ccc2cc(O)cc(-c3nc4c5c(nc(OCC6(CN7CCC(=C(F)F)C[C@@H]7C)CC6)nc5c3F)N3C[C@H]5CC[C@H](N5)[C@H]3[C@H](C)O4)c12` [Example 90], for which the IC50 in data set [1] stood at 8.8 nM; in data set [2] it was 0.51 nM.

For orientation: Cmax means the highest concentration seen after dosing. The term Tmax denotes the time from dosing to the highest level. `C#Cc1c(F)ccc2cc(O)cc(-c3nc4c5c(nc(OCC6(CN7CCC(=C(F)F)CC7)CC6)nc5c3F)N3C[C@H]5CC[C@H](N5)[C@H]3[C@H](CC)O4)c12` [Example 124, 4-((5S,5aS,6S,9R)-12-((1-((4-(difluoromethylene)piperidin-1-yl)methyl)cyclopropyl)methoxy)-5-ethyl-1-fluoro-5a,6,7,8,9,10-hexahydro-5H-4-oxa-3,10a,11,13,14-pentaaza-6,9-methylnaphtho[1,8-ab]hept-2-yl)-5-ethynyl-6-fluoronaphthalen-2-ol]: the IC50 in data set [2] came to 0.98 nM. Besides, the F in data set [3] (PO 30 mg/kg vs IV 1 mg/kg) is 18%; in data set [4] (PO 30 mg/kg vs IV 1 mg/kg, male Balb/c mice) it was 23%. Besides, the AUC(0-inf) is 1110 ng·h/mL in data set [3] (setting [6]); 6170 ng·h/mL in data set [3] (setting [7]); 374 ng·h/mL in data set [4] (mouse, in vivo, Balb/c mice, intravenously (IV), 1 mg/kg, plasma, read-out: AUCo-∞); 2610 ng·h/mL in data set [4] (mouse, in vivo, PO, 30 mg/kg, male Balb/c mice, overnight fasting, plasma, read-out: AUC0-∞). Besides, the C0 in data set [3] (rat, in vivo, IV, 1 mg/kg, overnight fasting, plasma, read-out: C0) was found to be 524 ng/mL; in data set [4] (mouse, in vivo, Balb/c mice, intravenously (IV), 1 mg/kg, plasma, read-out: C0) it was 412 ng/mL. Also, the clearance turned out to be 15 mL/min/kg in data set [3] (rat, in vivo, IV, 1 mg/kg, overnight fasting, plasma, read-out: CL) and 44.6 mL/min/kg in data set [4] (mouse, in vivo, Balb/c mice, intravenously (IV), 1 mg/kg, plasma, read-out: CL). In addition, the half-life is 9 h in data set [3] (setting [6]); 6.8 h in data set [3] (setting [7]); 11.5 h in data set [4] (mouse, in vivo, Balb/c mice, intravenously (IV), 1 mg/kg, plasma); 6.6 h in data set [4] (mouse, in vivo, PO, 30 mg/kg, male Balb/c mice, overnight fasting, plasma). Also, the Cmax turned out to be 471 ng/mL in data set [3] (setting [7]) and 391 ng/mL in data set [4] (mouse, in vivo, PO, 30 mg/kg, male Balb/c mice, overnight fasting, plasma, read-out: Cmax). The Tmax was determined as 6 h in data set [3] (setting [7]) and 1 h in data set [4] (mouse, in vivo, PO, 30 mg/kg, male Balb/c mice, overnight fasting, plasma, read-out: Tmax).

With `C#Cc1c(F)ccc2cc(O)cc(-c3nc4c5c(nc(OCC6(CN7CCC(=C(F)F)C7)CC6)nc5c3F)N3C[C@H]5CC[C@H](N5)[C@H]3[C@H](C)O4)c12` [Example 130], the results for the IC50 in data set [1] and in data set [2] were 4.2 nM and 0.33 nM, respectively.

Turning to `C#Cc1c(F)ccc2cc(O)cc(-c3nc4c5c(nc(OCC6(CN7CCCC(=C(F)F)CC7)CC6)nc5c3F)N3C[C@H]5CC[C@H](N5)[C@H]3[C@H](C)O4)c12` [Example 132], in data set [1], the IC50 worked out at 4.9 nM. The IC50 in data set [2] stood at 0.24 nM. In data set [3] (setting [7]), the AUC(0-inf) was 2350 ng·h/mL, the peak concentration (Cmax) came out at 246 ng/mL and the Tmax worked out at 2 h.

Regarding `[2H]C([2H])([2H])C1Oc2nc(-c3cc(O)cc4ccc(F)c(C#C)c34)c(F)c3nc(OCC4(CN5CCC(=CF)CC5C)CC4)nc(c23)N2CC3CCC(N3)C12` (centres unmarked) [Example 286], the IC50 in data set [1] stood at 7.8 nM. The IC50 in data set [2] came to 0.32 nM. In data set [3] (setting [7]), the AUC(0-inf) worked out at 600 ng·h/mL, the highest concentration (Cmax) was 50 ng/mL, the half-life is 10.8 h and the Tmax was 2 h.

Regarding `[2H]C([2H])(Oc1nc2c3c(nc(-c4cc(O)cc5ccc(F)c(C#C)c45)c(F)c3n1)O[C@@H](C)[C@@H]1[C@@H]3CC[C@H](CN21)N3)C1(C([2H])([2H])N2CCC(=C(F)F)CC2)CC1` [Example 289], the IC50 in data set [1] was 5.7 nM. In addition, the IC50 in data set [2] was determined as 0.28 nM. For the same compound, in data set [3] (setting [7]), the AUC(0-inf) is 2110 ng·h/mL, the Cmax was determined as 280 ng/mL, the half-life is 6.3 h and the Tmax amounted to 4 h.

As for `[2H]C([2H])(Oc1nc2c3c(nc(-c4cc(O)cc5ccc(F)c(C#C)c45)c(F)c3n1)O[C@@H](C)[C@@H]1[C@@H]3CC[C@H](CN21)N3)C1(C([2H])([2H])N2CCC(=C(F)F)C[C@H]2C)CC1` [Example 290], the IC50 stood at 6.2 nM in data set [1] and 0.3 nM in data set [2].

Regarding `CC[C@H](C)C(=O)O[C@H]1C[C@@H](C)C=C2C=C[C@H](C)[C@H](CC[C@@H]3C[C@@H](O)CC(=O)O3)[C@H]21` [Lovastatin, lovastatin, reference compound], the “Remaining rate (%) 0 min” value in data set [5] (0 min) turned out to be 100.00%. The “Remaining rate (%) 15 min” value in data set [5] (15 min) is recorded as 21.15%. Besides, the “Remaining rate (%) 30 min” value in data set [5] (30 min) is 1.77%. In data set [5] (60 min), the “Remaining rate (%) 60 min” value worked out at 0.36%. The “Remaining rate (%) 120 min” value in data set [5] (120 min) is 0.30%.
